Earlier results as cited in US20050014769A1, “Use of endothelin receptor antogonists for the treatment of tumour diseases” (priority 2001, published 2005).
Square brackets hold non-standard residues; d marks the D form. Peptide text beside a SMILES is read from it.

Legend:
[1] = tested on: prostate cancer cell lines; conditions: in vitro; Nelson J B et al. Cancer Research 56, 663-668, 1996
[2] = tested on: pancreas tumour cells (ASPC-1); conditions: in vivo; AACR Abstract No. 3365, 2000
melanoma cells = conditions: in vitro; AACR Abstract No. 358, 2002
[3] = tested on: primary ovarian carcinoma cells; conditions: Bagnato A et al. Cancer Res 59, 720-727, 1999
ovarian carcinoma cells = conditions: Del Bufalo D et al., Molecular Pharmacology 61/3, 2002
[4] = tested on: intestinal cancer cell lines; conditions: Ali H et al. Gut 47, 685-688, 2000
metastasis formation = conditions: rat metastasis model; Asham E et al. British Journal of Cancer 81/11, 2001
[5] = tested on: HPV positive cervical carcinomas; conditions: cervical carcinoma; Venuti A et al., FASEB 14/14, 2279-2283, 2000

For `CCCCN(CCCC)C(=O)CN1C[C@H](c2ccc3c(c2)OCO3)[C@@H](C(=O)O)[C@@H]1c1ccc(OC)cc1` [Atrasentan], the “growth of various prostate cancer cell lines” value [1] is listed as “inhibits the growth”.
In the case of `COc1ccccc1Oc1c(NS(=O)(=O)c2ccc(C(C)C)cn2)nc(-c2ccnc(-c3nnn[nH]3)c2)nc1OCCO` [Ro 61-612/001], the “proliferation of pancreas tumour cells (ASPC-1)” value [2] is given as “inhibits the proliferation”.
For `COc1ccccc1Oc1c(NS(=O)(=O)c2ccc(C(C)(C)C)cc2)nc(-c2ncccn2)nc1OCCO` [Bosetan], the “proliferation of melanoma cells” value (melanoma cells) is listed as “inhibits the proliferation”.
In the case of `CC(C)C[C@@H]1NC(=O)[C@@H](C(C)C)NC(=O)[C@@H]2CCCN2C(=O)[C@@H](CC(=O)O)NC(=O)[C@@H](Cc2c[nH]c3ccccc23)NC1=O` [BQ123] (cyclo(L[dW][dD]P[dV])), the “proliferation of tumour cells” value [3] is given as “inhibits the proliferation”, the “ET-1 protection against apoptosis” value (ovarian carcinoma cells) is given as “can be eliminated” and the “ET-1 stimulated proliferation of intestinal cancer cell lines” value [4] is given as “can be inhibited”. For the same compound, the metastasis formation (metastasis formation) was “inhibits metastasis formation” and the “ET-1 stimulated proliferation of tumour cells” value [5] was “can be inhibited”.
